pIC50: −log10 of the molar value.
Key:
[1] = target: T1, 5-hydroxytryptamine receptor 1A (Homo sapiens, UniProt P08908)
T1 sequence (P08908 whole entry): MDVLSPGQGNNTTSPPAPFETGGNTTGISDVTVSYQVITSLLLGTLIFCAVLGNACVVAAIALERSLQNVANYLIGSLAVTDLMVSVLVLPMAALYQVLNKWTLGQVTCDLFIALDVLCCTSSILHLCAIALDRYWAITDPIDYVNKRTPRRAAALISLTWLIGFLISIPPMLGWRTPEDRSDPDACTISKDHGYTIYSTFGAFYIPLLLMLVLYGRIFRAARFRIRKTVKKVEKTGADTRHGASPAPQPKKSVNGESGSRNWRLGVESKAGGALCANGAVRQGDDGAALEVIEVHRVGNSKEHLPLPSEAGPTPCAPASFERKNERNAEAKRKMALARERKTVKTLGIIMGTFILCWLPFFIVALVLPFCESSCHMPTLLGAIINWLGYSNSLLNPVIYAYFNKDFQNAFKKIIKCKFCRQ

[2] = target: Sodium-dependent noradrenaline transporter (Homo sapiens, UniProt P23975)
[3] = target: T2, 5-hydroxytryptamine receptor 2C (Homo sapiens, UniProt P28335)
T2 sequence (P28335 whole entry): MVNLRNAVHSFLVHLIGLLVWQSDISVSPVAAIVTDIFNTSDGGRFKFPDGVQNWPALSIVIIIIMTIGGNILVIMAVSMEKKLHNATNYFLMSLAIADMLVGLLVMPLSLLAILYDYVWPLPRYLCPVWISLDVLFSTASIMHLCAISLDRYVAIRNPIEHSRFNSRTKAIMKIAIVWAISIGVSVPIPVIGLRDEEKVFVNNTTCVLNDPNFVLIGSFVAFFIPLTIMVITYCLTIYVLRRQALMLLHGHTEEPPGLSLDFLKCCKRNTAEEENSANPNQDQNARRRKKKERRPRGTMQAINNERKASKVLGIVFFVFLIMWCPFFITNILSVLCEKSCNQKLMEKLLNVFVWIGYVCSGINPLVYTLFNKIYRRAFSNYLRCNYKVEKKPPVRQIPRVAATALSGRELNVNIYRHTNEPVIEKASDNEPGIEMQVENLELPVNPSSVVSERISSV

D(2) dopamine receptor = D(2) dopamine receptor (Homo sapiens, UniProt P14416)
Sequence of D(2) dopamine receptor (P14416 whole entry): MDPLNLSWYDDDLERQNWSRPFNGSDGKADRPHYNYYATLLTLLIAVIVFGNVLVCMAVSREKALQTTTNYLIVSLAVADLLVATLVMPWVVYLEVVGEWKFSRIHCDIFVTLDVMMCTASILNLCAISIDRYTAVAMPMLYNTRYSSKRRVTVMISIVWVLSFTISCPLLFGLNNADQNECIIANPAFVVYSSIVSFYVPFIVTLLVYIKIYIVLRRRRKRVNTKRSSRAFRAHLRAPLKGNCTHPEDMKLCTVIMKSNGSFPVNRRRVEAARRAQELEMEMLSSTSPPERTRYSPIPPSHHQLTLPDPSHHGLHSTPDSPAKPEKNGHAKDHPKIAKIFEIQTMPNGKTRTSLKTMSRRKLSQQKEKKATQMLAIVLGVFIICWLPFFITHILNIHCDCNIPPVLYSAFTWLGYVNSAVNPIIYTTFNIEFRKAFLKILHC

Sequence of Sodium-dependent noradrenaline transporter (P23975 whole entry): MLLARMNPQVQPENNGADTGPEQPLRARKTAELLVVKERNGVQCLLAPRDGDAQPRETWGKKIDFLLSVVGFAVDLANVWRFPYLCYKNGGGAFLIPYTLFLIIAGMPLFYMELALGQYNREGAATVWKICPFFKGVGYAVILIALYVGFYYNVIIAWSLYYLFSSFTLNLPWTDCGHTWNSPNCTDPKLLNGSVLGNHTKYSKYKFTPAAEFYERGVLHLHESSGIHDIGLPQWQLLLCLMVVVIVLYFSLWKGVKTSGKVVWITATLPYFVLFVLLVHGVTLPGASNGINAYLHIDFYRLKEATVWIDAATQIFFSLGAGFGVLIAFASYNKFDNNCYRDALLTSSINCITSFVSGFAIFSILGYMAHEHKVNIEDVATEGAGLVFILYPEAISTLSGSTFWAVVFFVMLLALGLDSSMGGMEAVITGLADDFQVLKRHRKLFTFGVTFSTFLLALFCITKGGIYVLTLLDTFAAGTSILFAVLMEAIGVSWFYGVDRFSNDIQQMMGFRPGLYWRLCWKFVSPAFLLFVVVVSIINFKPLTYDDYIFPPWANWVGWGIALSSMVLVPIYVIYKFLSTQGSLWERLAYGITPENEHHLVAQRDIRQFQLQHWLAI

N#Cc1ccc(CCOC(=O)NC2CCN(CCCC(c3ccc(F)cc3)c3ccc(F)cc3)CC2)cc1
pIC50 [1]: 6.01
pIC50 [2]: 5.94
pIC50 [3]: 5.56
pIC50 (D(2) dopamine receptor): 6.26

Source: ChEMBL document CHEMBL1134625 (J Med Chem, 2001)
